Laboratory results reported in patent US10150737B2, “Compounds for controlling arthropods” (priority 2013, dated 2018).

Legend:
[1] = logP determination by HPLC on a reversed-phase column (C18); format: physicochemical; conditions: for logP^a): HPLC-MS method a); for log P: HPLC-MS
Phaedon cochleariae = Phaedon cochleariae - spray test; format: in vivo; conditions: larvae on Chinese cabbage leaf discs, after 7 days
How it was run: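 Mortality of mustard beetle larvae was scored as % at day 7 on Brassica pekinensis leaf discs. Discs had been treated by spraying at the desired concentration, using an acetone/dimethylformamide solution diluted in water with 1000 ppm alkylaryl polyglycol ether, and dried before larvae were added.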

Tetranychus urticae = Tetranychus urticae - spray test, OP-resistant; format: in vivo; conditions: bean leaf discs, after 6 days
How it was run: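 Mortality (%) read on day 6 after spraying Phaseolus vulgaris leaf discs carrying all mite stages with formulations at the desired concentration. Formulation: active ingredient in acetone plus dimethylformamide, made up with emulsifier-containing water (1000 ppm alkylaryl polyglycol ether).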

Amblyomma hebraeum = test: Amblyomma hebaraeum test (tick nymphs, immersion); format: in vivo; conditions: application rate 100 ppm; tick nymphs immersed one minute; after 42 days
How it was run: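 Mortality (%) is read 42 days post-treatment, where 0% means no ticks and 100% all ticks killed. Nymphs were dipped for 1 min into the test dilution (DMSO stock diluted with water) and afterwards stored on filter paper under controlled climate.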

Ctenocephalides felis [2] = test: Ctenocephalides felis - oral test; format: in vivo; conditions: application rate 100 ppm in citrated cattle blood; after 2 days
How it was run: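 Roughly 20 unfed adult C. felis imbibe compound-dosed citrated cattle blood (DMSO formulation) across parafilm from a cylinder above their gauze chamber; percentage mortality recorded at day 2.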

[3] = tested on: Boophilus microplus Parkhurst strain, SP-resistant; test: Boophilus microplus - dip test; format: in vivo; conditions: application rate 100 ppm; dip of engorged adult female ticks; after 7 days
How it was run: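 Compound dissolved in DMSO, diluted with water, and used to fully wet groups of 8-10 engorged female cattle ticks (SP-resistant Parkhurst strain). Fertile egg laying assessed at 7 days, doubtful eggs held ~42 days until hatch; 0% means all eggs fertile.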

Myzus persicae = Myzus persicae - spray test; format: in vivo; conditions: Chinese cabbage leaf discs, after 6 days
How it was run: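 Mortality of the green peach aphid, as % killed, was read 6 days after spraying infested Brassica pekinensis leaf discs. Compound formulated in acetone/dimethylformamide and made up with emulsifier-containing (1000 ppm) water.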

Spodoptera frugiperda = Spodoptera frugiperda - spray test; format: in vivo; conditions: caterpillars on maize leaf discs, after 7 days
How it was run: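 Percent mortality of Spodoptera frugiperda caterpillars scored 7 days after placing them on dried maize leaf discs sprayed at the desired concentration. Spray formulation: compound dissolved in acetone/dimethylformamide, made up with water containing 1000 ppm emulsifier.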

Lucilia cuprina = Lucilia cuprina test; format: in vivo; conditions: application rate 100 ppm; L1 larvae; after 2 days
How it was run: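 Mortality (%) of first-instar blowfly larvae, about 20 per vessel, recorded 2 days after exposure to compound-treated minced horsemeat. Compound dissolved in dimethyl sulphoxide, then water-diluted to the desired concentration.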

Rhipicephalus sanguineus = Rhipicephalus sanguineus - in vitro contact tests with adult brown dog ticks; format: in vivo; conditions: after 48 h, ticks dead or moribund
How it was run: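 Efficacy, scored after 48 h, is the % of adult ticks dead or moribund, i.e. unable to climb away on a 45-50° C hotplate within 5 min. Tubes held 5-10 ticks in the dark at room temperature, on an acetone-applied coating of 5 μg/cm^2 (900 ppm solution).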

Ctenocephalides felis [4] = test: Ctenocephalides felis - in vitro contact tests with adult cat fleas; format: in vivo; conditions: application rate 5 μg/cm2 (=500 g/ha); after 48 h; fleas dead or moribund
How it was run: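 Efficacy, as percentage of fleas dead or moribund, was scored at 48 h by knocking fleas to the tube base. Exposure was by contact with a dried acetone film of compound at 5 μg/cm^2 area dose; 5–10 adults per tube, room temperature, ambient humidity.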

Boophilus microplus = Boophilus microplus - injection test; format: in vivo; conditions: application rate 20 μg/animal; injection into engorged adult female ticks; after 7 days
How it was run: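 Five engorged adult female cattle ticks each received a 1 μl abdominal injection of compound solution in dimethyl sulphoxide. Fertile egg laying was assessed at 7 days, with doubtful eggs incubated about 42 days until hatch. 0% efficacy means all eggs fertile.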

Musca domestica = Musca domestica test; format: in vivo; conditions: application rate 100 ppm; adult houseflies; after 2 days
How it was run: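 Ten adult Musca domestica are exposed to a sugar-soaked sponge carrying the water-diluted DMSO formulation; kill in % is read 2 days later.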

[5] = reversed-phase column (C18), Table I-T3

Q: Which “logP^a)” value [1] does the source give for Cc1cc(C(F)(C(F)(F)F)C(F)(F)F)cc(C)c1-n1cc(-c2cnc(Cl)c(C(=O)NC3(C#N)CC3)c2)cn1 [I-T3-21] here?
A: 3.7

Q: And the “logP^a)” value [1, 5]?
A: 3.7

Q: And the efficacy (Phaedon cochleariae; application rate 500 g/ha)?
A: 100%

Q: What about the efficacy (Tetranychus urticae; application rate 500 g/ha) of the same compound?
A: 100%

Q: What about the “efficacy (kill)” value (Amblyomma hebraeum) of the same compound?
A: 100%

Q: And the “efficacy (kill)” value (Ctenocephalides felis [2])?
A: 100%

Q: What about the “efficacy (laying of fertile eggs)” value [3] of the same compound?
A: 100%

Q: What about the efficacy (Myzus persicae; application rate 500 g/ha) of the same compound?
A: 90%

Q: And the efficacy (Spodoptera frugiperda; application rate 500 g/ha)?
A: 100%

Q: What about the “efficacy (kill)” value (Lucilia cuprina) of the same compound?
A: 100%

Q: What about the efficacy (Rhipicephalus sanguineus; application rate 5 μg/cm2) of the same compound?
A: 100%

Q: And the efficacy (Ctenocephalides felis [4])?
A: 100%

Q: And the “efficacy (laying of fertile eggs)” value (Boophilus microplus)?
A: 100%

Q: What about the “efficacy (kill)” value (Musca domestica) of the same compound?
A: 100%

Q: For Cc1cc(C(F)(C(F)(F)F)C(F)(F)F)cc(C(F)(F)F)c1-n1cc(-c2ccc(Cl)c(C(=O)NC3(C#N)CC3)c2)cn1 [I-T3-55], which “logP^a)” value [1] is on record?
A: 4.3

Q: And the “logP^a)” value [1, 5]?
A: 4.3

Q: And the efficacy (Phaedon cochleariae; application rate 100 g/ha)?
A: 100%

Q: And the efficacy (Tetranychus urticae; application rate 100 g/ha)?
A: 100%

Q: And the “efficacy (kill)” value (Amblyomma hebraeum)?
A: 100%

Q: What about the “efficacy (kill)” value (Ctenocephalides felis [2]) of the same compound?
A: 100%

Q: And the “efficacy (laying of fertile eggs)” value [3]?
A: 100%

Q: And the efficacy (Myzus persicae; application rate 100 g/ha)?
A: 100%

Q: What about the efficacy (Spodoptera frugiperda; application rate 100 g/ha) of the same compound?
A: 100%

Q: What about the “efficacy (kill)” value (Lucilia cuprina) of the same compound?
A: 100%

Q: What about the efficacy (Rhipicephalus sanguineus; application rate 5 μg/cm2) of the same compound?
A: 100%

Q: And the efficacy (Ctenocephalides felis [4])?
A: 100%

Q: And the “efficacy (laying of fertile eggs)” value (Boophilus microplus)?
A: 100%

Q: And the “efficacy (kill)” value (Musca domestica)?
A: 100%

Q: For Cc1cc(C(F)(C(F)(F)F)C(F)(F)F)cc(C(F)(F)F)c1-n1cc(-c2cnc(C)c(C(=O)N(C)C3(C#N)CC3)c2)cn1 [I-T3-123], which “logP^a)” value ([1]; reversed-phase column (C18)) is on record?
A: 3.9

Q: And the “log P” value [1, 5]?
A: 3.9

Q: What about the efficacy (Phaedon cochleariae; application rate 100 g/ha) of the same compound?
A: 100%

Q: And the efficacy (Tetranychus urticae; application rate 100 g/ha)?
A: 90%

Q: What about the “efficacy (kill)” value (Amblyomma hebraeum) of the same compound?
A: 80%

Q: And the “efficacy (kill)” value (Ctenocephalides felis [2])?
A: 100%

Q: And the “efficacy (laying of fertile eggs)” value [3]?
A: 100%

Q: And the efficacy (Myzus persicae; application rate 100 g/ha)?
A: 100%

Q: What about the efficacy (Spodoptera frugiperda; application rate 100 g/ha) of the same compound?
A: 100%

Q: What about the “efficacy (kill)” value (Lucilia cuprina) of the same compound?
A: 100%

Q: And the efficacy (Rhipicephalus sanguineus; application rate 1 μg/cm2)?
A: 80%

Q: What about the efficacy (Ctenocephalides felis [4]) of the same compound?
A: 100%

Q: And the “efficacy (laying of fertile eggs)” value (Boophilus microplus)?
A: 100%

Q: What about the “efficacy (kill)” value (Musca domestica) of the same compound?
A: 100%

Q: What does the source list for Cc1cc(C(F)(C(F)(F)F)C(F)(F)F)cc(Cl)c1-n1cc(-c2ccc(Cl)c(C(=O)NC3(C#N)CC3)c2)cn1 [I-T3-64]?
A: logP^a) [1]: 4.2; logP^a) [1, 5]: 4.2; efficacy (Phaedon cochleariae; application rate 100 g/ha): 100%; efficacy (Tetranychus urticae; application rate 100 g/ha): 100%; efficacy (kill) (Amblyomma hebraeum): 100%; efficacy (kill) (Ctenocephalides felis [2]): 100%; efficacy (laying of fertile eggs) [3]: 100%; efficacy (Myzus persicae; application rate 100 g/ha): 90%; efficacy (Spodoptera frugiperda; application rate 100 g/ha): 100%; efficacy (kill) (Lucilia cuprina): 100%; efficacy (Rhipicephalus sanguineus; application rate 0.2 μg/cm2): 80%; efficacy (Ctenocephalides felis [4]): 100%; efficacy (laying of fertile eggs) (Boophilus microplus): 100%; efficacy (kill) (Musca domestica): 100%

Q: With N#CC1(NC(=O)c2cc(-c3cnn(-c4c(Cl)cc(C(F)(C(F)(F)F)C(F)(F)F)cc4OC(F)(F)F)c3)ccc2Cl)CC1 [I-T3-163] as the compound, how does the “logP^a)” value ([1]; reversed-phase column (C18)) read?
A: 4.5

Q: And the “log P” value [1, 5]?
A: 4.5

Q: What about the efficacy (Phaedon cochleariae; application rate 100 g/ha) of the same compound?
A: 100%

Q: And the efficacy (Tetranychus urticae; application rate 100 g/ha)?
A: 100%

Q: And the “efficacy (kill)” value (Amblyomma hebraeum)?
A: 100%

Q: What about the “efficacy (kill)” value (Ctenocephalides felis [2]) of the same compound?
A: 100%

Q: What about the “efficacy (laying of fertile eggs)” value [3] of the same compound?
A: 100%

Q: What about the efficacy (Myzus persicae; application rate 100 g/ha) of the same compound?
A: 90%

Q: And the efficacy (Spodoptera frugiperda; application rate 100 g/ha)?
A: 100%

Q: And the “efficacy (kill)” value (Lucilia cuprina)?
A: 100%

Q: What about the efficacy (Rhipicephalus sanguineus; application rate 5 μg/cm2) of the same compound?
A: 100%

Q: What about the efficacy (Ctenocephalides felis [4]) of the same compound?
A: 100%

Q: And the “efficacy (laying of fertile eggs)” value (Boophilus microplus)?
A: 100%

Q: What about the “efficacy (kill)” value (Musca domestica) of the same compound?
A: 100%

Q: For CCc1cc(C(F)(C(F)(F)F)C(F)(F)F)cc(Cl)c1-n1cc(-c2ccc(Cl)c(C(=O)NC3CC3)c2)cn1 [I-T3-72], which “logP^a)” value [1] is on record?
A: 4.6

Q: And the “logP^a)” value [1, 5]?
A: 4.6

Q: What about the efficacy (Phaedon cochleariae; application rate 100 g/ha) of the same compound?
A: 100%

Q: What about the efficacy (Tetranychus urticae; application rate 100 g/ha) of the same compound?
A: 100%

Q: What about the “efficacy (kill)” value (Amblyomma hebraeum) of the same compound?
A: 100%

Q: What about the “efficacy (kill)” value (Ctenocephalides felis [2]) of the same compound?
A: 100%

Q: What about the “efficacy (laying of fertile eggs)” value [3] of the same compound?
A: 100%

Q: And the efficacy (Myzus persicae; application rate 100 g/ha)?
A: 90%

Q: And the efficacy (Spodoptera frugiperda; application rate 100 g/ha)?
A: 100%

Q: What about the “efficacy (kill)” value (Lucilia cuprina) of the same compound?
A: 100%

Q: What about the efficacy (Rhipicephalus sanguineus; application rate 5 μg/cm2) of the same compound?
A: 100%

Q: What about the efficacy (Ctenocephalides felis [4]) of the same compound?
A: 100%

Q: And the “efficacy (laying of fertile eggs)” value (Boophilus microplus)?
A: 100%

Q: What about the “efficacy (kill)” value (Musca domestica) of the same compound?
A: 100%
